Results reported in US20210179636A1, “ANTIBACTERIAL COMPOUNDS” (priority 2016, published 2021).
≈ marks a conversion by molar mass, not a printed value. Where two headings read alike, the source gives them in different places.

How the values were obtained:
[1] = system: Klebsiella pneumoniae ATCC 700603; assay: MIC, broth microdilution (CLSI); type: cell-based; conditions: K. pneumoniae ATCC 700603, 16-20 h, mode of three experiments
HepG2 ATCC HB-8065 = assay: Human cell viability assay (CellTiter-Glo); type: cell-based; conditions: for IC50: Homo sapiens
Procedure: Compounds are assessed for potential non-specific cytotoxic effects against a human hepatic cell line (HepG2 ATCC HB-8065). HepG2 cells are seeded at 20,000 cells/well in 96-well microtitre plates in minimal essential medium (MEM) supplemented with a final concentration of 10% FBS and 1 mM sodium pyruvate. After 24 h compound dilutions are prepared in Dulbecco's minimum essential media (DMEM) supplemented with final concentrations of 0.001% FBS, 0.3% bovine albumin and 0.02% HEPES and added to cells. Compounds are tested in two-fold serial dilutions over a final concentration range of 1-128 μg/mL in a final DMSO concentration of 1% vol/vol. Chlorpromazine is used as a positive control. Cells are incubated with compound at 37° C. and 5% CO2 for a further 24 h, after which time the CellTiter-Glo reagent (Promega) is added. Luminescence is measured on a BMG Omega plate reader. Data are analysed using GraphPad Prism software to determine the concentration of compound that inhibits cell viability by fifty percent (IC50).

[2] = system: Staphylococcus aureus ATCC 29213; assay: MIC, broth microdilution (CLSI); type: cell-based; conditions: S. aureus ATCC 29213, 16-20 h, mode of three experiments
[3] = system: Escherichia coli ATCC 25922; assay: MIC, broth microdilution (CLSI); type: cell-based; conditions: E. coli ATCC 25922, 16-20 h, mode of three experiments
[4] = system: Acinetobacter baumannii NCTC 13420; assay: MIC, broth microdilution (CLSI); type: cell-based; conditions: A. baumannii NCTC 13420, 16-20 h, mode of three experiments
[5] = system: Enterobacter cloacae NCTC 13406; assay: MIC, broth microdilution (CLSI); type: cell-based; conditions: E. cloacae NCTC 13406, 16-20 h, mode of three experiments
[6] = system: Pseudomonas aeruginosa ATCC 27853; assay: MIC, broth microdilution (CLSI); type: cell-based; conditions: P. aeruginosa ATCC 27853, 16-20 h, mode of three experiments
[7] = system: Streptococcus pneumoniae ATCC 49619; assay: MIC, broth microdilution (CLSI); type: cell-based; conditions: S. pneumoniae ATCC 49619, 16-20 h, mode of three experiments
[8] = system: Haemophilus influenzae ATCC 49247; assay: MIC, broth microdilution (CLSI); type: cell-based; conditions: H. influenzae ATCC 49247, 16-20 h, mode of three experiments
E. coli MG1655 S83L = type: cell-based, Escherichia coli; conditions: compared to the isogenic parent strain E. coli MG1655; S83L mutation on DNA gyrase subunit GyrA
E. coli ATCC BAA-2452 = assay: MIC, broth microdilution (CLSI); type: cell-based, Escherichia coli; conditions: 16-20 h, mode of three experiments
[9] = system: Acinetobacter baumannii ATCC 19606; assay: MIC, broth microdilution (CLSI); type: cell-based; conditions: A. baumannii ATCC 19606, 16-20 h, mode of three experiments
E. coli MG1655 WT = assay: MIC, broth microdilution (CLSI); type: cell-based, Escherichia coli; conditions: E. coli MG1655 WT; 16-20 h; mode of three experiments
E. coli MG1655 D87G = type: cell-based, Escherichia coli; conditions: compared to the isogenic parent strain E. coli MG1655; D87G mutation on DNA gyrase subunit GyrA
E. coli NCTC 13476 = assay: MIC, broth microdilution (CLSI); type: cell-based, Escherichia coli; conditions: mode of three experiments
[10] = Klebsiella pneumoniae, ATCC700603, read-out: MIC
[11] = HepG2 cell viability, 24 h with compound, range 1-128 μg/mL
[12] = Staphylococcus aureus, ATCC29213, read-out: MIC
[13] = Escherichia coli, ATCC25922, read-out: MIC
[14] = Acinetobacter baumannii, NCTC13420, read-out: MIC
[15] = Enterobacter cloacae, NCTC13406, read-out: MIC
[16] = Pseudomonas aeruginosa, ATCC27853, read-out: MIC
[17] = Streptococcus pneumoniae, ATCC49619, read-out: MIC
[18] = Haemophilus influenzae, ATCC49247, read-out: MIC
[19] = Acinetobacter baumannii, ATCC19606, read-out: MIC

Compound | MIC [1, 10] [µg/mL] | IC50 (HepG2 ATCC HB-8065; [11]) [µg/mL] | MIC [2, 12] [µg/mL] | MIC [3, 13] [µg/mL] | MIC [4, 14] [µg/mL] | MIC [5, 15] [µg/mL] | MIC [6, 16] [µg/mL] | MIC [7, 17] [µg/mL] | MIC [8, 18] [µg/mL] | Fold increase in MIC against E. coli MG1655 S83L (E. coli MG1655 S83L) [fold] | Fold increase in MIC against E. coli MG1655 D87G (E. coli MG1655 D87G) [fold] | other results
O=C1COc2ccc(N3C[C@H]4CN(CCn5c(=O)ccc6ccc(OCCO)nc65)C[C@@H]4OC3=O)nc2N1 (relative stereo) [Compound 5] | > 100 | > 100 | < 1 | 10 to 100 (≈ 19.1 to 191 µM) | > 100 | 10 to 100 (≈ 19.1 to 191 µM) | 10 to 100 (≈ 19.1 to 191 µM) | 1 to 10 (≈ 1.91 to 19.1 µM) | 1 to 10 (≈ 1.91 to 19.1 µM) | – | – | –
NCCCOc1ccc2ccc(=O)n(CCN3C[C@@H]4CN(c5ccc6c(n5)NC(=O)CO6)C(=O)O[C@H]4C3)c2n1 (relative stereo) [Compound 8] | > 100 | > 100 | 1 to 10 (≈ 1.87 to 18.7 µM) | 10 to 100 (≈ 18.7 to 187 µM) | > 100 | > 100 | 10 to 100 (≈ 18.7 to 187 µM) | 1 to 10 (≈ 1.87 to 18.7 µM) | > 100 | – | – | –
N#Cc1ccc2ccc(=O)n(CCN3C[C@H]4CN(c5ccc6c(n5)NC(=O)CO6)C(=O)O[C@H]4C3)c2c1 (relative stereo) [Compound 10, rel-1-{2-[(4aS*,7aR*-2-oxo-3-{3-oxo-2H,3H,4H-pyrido[3,2-b][1,4]oxazin-6-yl}-octahydropyrrolo[3,4-e][1,3]oxazin-6-yl]ethyl}-2-oxo-1,2-dihydroquinoline-7-carbonitrile] | – | – | – | – | – | – | – | – | – | 1 | 1 | MIC [1]: B (a MIC of from 1 to 10 is assigned the letter B); MIC (E. coli ATCC BAA-2452): A (an MIC (in μg/mL) of less or equal to 1 is assigned the letter A); MIC [9]: A (an MIC (in μg/mL) of less or equal to 1 is assigned the letter A); toxicity against HepG2 human hepatic cell line (in words) (HepG2 ATCC HB-8065): no detectable toxicity; IC50 HepG2 (HepG2 ATCC HB-8065; [11]): A (an IC50 of over 100 is assigned the letter A); MIC [7]: A (an MIC (in μg/mL) of less or equal to 1 is assigned the letter A); MIC [2]: A (an MIC (in μg/mL) of less or equal to 1 is assigned the letter A); MIC [3]: A (an MIC (in μg/mL) of less or equal to 1 is assigned the letter A); MIC (E. coli MG1655 WT): A (an MIC (in μg/mL) of less or equal to 1 is assigned the letter A); MIC [8]: A (an MIC (in μg/mL) of less or equal to 1 is assigned the letter A); MIC [4]: B (a MIC of from 1 to 10 is assigned the letter B); MIC [5]: A (an MIC (in μg/mL) of less or equal to 1 is assigned the letter A); MIC [6]: B (a MIC of from 1 to 10 is assigned the letter B); MIC (E. coli NCTC 13476; 16-20 h): B (a MIC of from 1 to 10 is assigned the letter B)
N#Cc1ccc2ccc(=O)n(CCCN3C[C@H]4CN(c5ccc6c(n5)NC(=O)CO6)C(=O)O[C@@H]4C3)c2c1 (relative stereo) [Compound 14, rel-1-{3-[(4aS*,7aR*)-2-oxo-3-{3-oxo-2H,3H,4H-pyrido[3,2-b]1,4]oxazin-6-yl}-octahydropyrrolo[3,4-e][1,3]oxazin-6-yl]propyl}-2-oxo-1,2-dihydroquinoline-7-carbonitrile] | 1 to 10 (≈ 2 to 20 µM) | 10 to 100 (≈ 20 to 200 µM) | < 1 | < 1 | < 1 | 1 to 10 (≈ 2 to 20 µM) | 1 to 10 (≈ 2 to 20 µM) | < 1 | < 1 | 4 | 2 | MIC (E. coli ATCC BAA-2452; Escherichia coli, read-out: MIC): < 1 µg/mL; MIC [9, 19]: 1 to 10 µg/mL (≈ 2 to 20 µM); toxicity against HepG2 human hepatic cell line (in words) (HepG2 ATCC HB-8065; summary of Table 3): acceptable level of hepatic toxicity; MIC (E. coli NCTC 13476; Escherichia coli, NCTC13476, 16-20 h, read-out: MIC): 1 to 10 µg/mL (≈ 2 to 20 µM)
NCCCOc1ccc2ccc(=O)n(CCCN3CC4CN(c5ccc6c(n5)NC(=O)CO6)C(=O)OC4C3)c2n1 (stereo not drawn) [Compound 6, rel-1-{3-[(4aS*,7aR*)-2-oxo-3-{3-oxo-2H,3H,4H-pyrido[3,2-b][1,4]oxazin-6-yl}-octahydropyrrolo[3,4-e][1,3]oxazin-6-yl]propyl}-7-(3-aminopropoxy)-1,2-dihydro-1,8-naphthyridin-2-one] | > 100 | > 100 | 1 to 10 (≈ 1.82 to 18.2 µM) | 1 to 10 (≈ 1.82 to 18.2 µM) | > 100 | > 100 | 10 to 100 (≈ 18.2 to 182 µM) | 1 to 10 (≈ 1.82 to 18.2 µM) | > 100 | – | – | –
C[C@H]1COc2c(N3CCN(C)CC3)c(F)cc3c(=O)c(C(=O)O)cn1c23 [LEV, levofloxacin, reference compound] | – | – | – | – | – | – | – | – | – | 8 | 8 | –

Second part, led by results:

MIC [1, 10] [µg/mL] | IC50 (HepG2 ATCC HB-8065; [11]) [µg/mL] | MIC [2, 12] [µg/mL] | MIC [3, 13] [µg/mL] | MIC [4, 14] [µg/mL] | MIC [5, 15] [µg/mL] | MIC [6, 16] [µg/mL] | MIC [7, 17] [µg/mL] | MIC [8, 18] [µg/mL] | Compound | Fold increase in MIC against E. coli MG1655 S83L (E. coli MG1655 S83L) [fold] | Fold increase in MIC against E. coli MG1655 D87G (E. coli MG1655 D87G) [fold] | other results
1 to 10 (≈ 2.1 to 21 µM) | > 100 | < 1 | < 1 | < 1 | < 1 | 1 to 10 (≈ 2.1 to 21 µM) | – | – | O=C1COc2ccc(N3C[C@@H]4CN(CCCn5c(=O)ccc6ccccc65)C[C@@H]4OC3=O)nc2N1 (relative stereo) [Compound 4, rel-1-{3-[(4aS*,7aR*)-2-oxo-3-{3-oxo-2H,3H,4H-pyrido[3,2-b][1,4]oxazin-6-yl}-octahydropyrrolo[3,4-e][1,3]oxazin-6-yl]propyl}-1,2-dihydroquinolin-2-one] | – | – | –
10 to 100 (≈ 20.3 to 203 µM) | 1 to 10 (≈ 2.03 to 20.3 µM) | < 1 | – | 10 to 100 (≈ 20.3 to 203 µM) | 10 to 100 (≈ 20.3 to 203 µM) | 10 to 100 (≈ 20.3 to 203 µM) | 1 to 10 (≈ 2.03 to 20.3 µM) | 1 to 10 (≈ 2.03 to 20.3 µM) | COc1ncc2ccc(=O)n(CCN3C[C@H]4CN(c5ccc6c(n5)NC(=O)CO6)C(=O)O[C@@H]4C3)c2n1 (relative stereo) [Compound 13, rel-(4aS*,7aR*-6-(2-{2-methoxy-7-oxo-7H,8H-pyrido[2,3-d]pyrimidin-8-yl}ethyl)-3-{3-oxo-2H,3H,4H-pyrido[3,2-b][1,4]oxazin-6-yl}-octahydropyrrolo[3,4-e][1,3]oxazin-2-one] | – | – | –
10 to 100 (≈ 19.7 to 197 µM) | 10 to 100 (≈ 19.7 to 197 µM) | < 1 | 1 to 10 (≈ 1.97 to 19.7 µM) | 10 to 100 (≈ 19.7 to 197 µM) | 1 to 10 (≈ 1.97 to 19.7 µM) | 10 to 100 (≈ 19.7 to 197 µM) | < 1 | < 1 | COc1ncc2ccc(=O)n(CCCN3CC4CN(c5ccc6c(n5)NC(=O)CO6)C(=O)OC4C3)c2n1 (stereo not drawn) [Compound 11, rel-(4aS*,7aR*)-6-(3-{2-methoxy-7-oxo-7H,8H-pyrido[2,3-d]pyrimidin-8-yl}propyl)-3-{3-oxo-2H,3H,4H-pyrido[3,2-b][1,4]oxazin-6-yl}-octahydropyrrolo[3,4-e][1,3]oxazin-2-one] | – | – | toxicity against HepG2 human hepatic cell line (in words) (HepG2 ATCC HB-8065; summary of Table 3): acceptable level of hepatic toxicity
10 to 100 (≈ 20.3 to 203 µM) | > 100 | < 1 | < 1 | < 1 | 1 to 10 (≈ 2.03 to 20.3 µM) | 10 to 100 (≈ 20.3 to 203 µM) | < 1 | < 1 | COc1ccc2ccc(=O)n(CCN3CC4CN(c5ccc6c(n5)NC(=O)CO6)C(=O)OC4C3)c2n1 (stereo not drawn) [Compound 16, rel-1-{2-[(4aR*,7aR*)-2-oxo-3-{3-oxo-2H,3H,4H-pyrido[3,2-b][1,4]oxazin-6-yl}-octahydropyrrolo[3,4-e][1,3]oxazin-6-yl]ethyl}-7-methoxy-1,2-dihydro-1,8-naphthyridin-2-one] | – | – | MIC [9, 19]: < 1 µg/mL
